Measurements as given in patent US8551997B2, “Structural-based inhibitors of the glutathione binding site in aldose reductase, methods of screening therefor and methods of use” (The Board of Regents of the University of Texas System, priority 2004, dated 2013).

Experiments:
A549 cells = test: Flowcytometric cell cycle analysis, A549; format: cell-based, human; conditions: 10% FBS
Experimental: The Caco-2 and A549 cells were grown separately in 6 well plates at a density of approximately 1.5×10^5 cells/well. Growth-arrested Caco-2 cells were pre-incubated with or without sorbinil 20 μM or carrier for 24 h and then stimulated with either 10 ng/ml BFGF or PDGF for another 24 h. After 24 hrs A549 cells were incubated with or without sorbinil at different concentrations for another 24 h.
The Caco-2 and A549 cells were then washed with PBS and harvested by trypsinization. Cellular DNA was stained with low and high salt solutions. Briefly, cells were resuspended in 250 μl of solution A, low salt stain, containing polyetheleneglycol (30 mg/ml), propidium iodide (0.05 mg/ml), triton-x-100 (1 μl/ml), sodium citrate 4 mM, RNAse A 10 μg/ml and incubated at 37° C. for 20 min followed by the addition of 250 μl of solution B, high salt stain containing 400 mM NaCl instead of 4 mM sodium citrate in solution A, and incubated overnight at 4° C. Cell cycle analysis was performed with a minimum of 10,000 events per analysis by using FACScan flow cytometer (Becton, Dickinson and Co., San Jose, Calif., USA).

isolated mouse hearts = test: Isolated mouse hearts (Langendorff preparation) challenged with LPS; conditions: perfusion with sorbinil in the presence of LPS
HT29-GFP cells = test: HT29-GFP liver metastasis in nude mice; format: in vivo, mouse; conditions: sorbinil 40 mg/kg body weight in the diet, 34 days
Experimental: For in vivo metastasis studies, 4- to 6-weeks-old male nude^nu/nu mice were obtained from Harlan Sprague Dawley (Indianapolis, Ind.) and housed in clean, pathogen-free rooms in an environment with controlled temperature (22° C.), humidity and a 12 hours light/dark cycle. The mice were fed standard chow (Formula Chow 5008; Purina Mills, St. Louis, Mo.), given tap water ad libitum and were allowed to acclimate for 1 week. Metastatic HT29-GFP cells were injected intrasplenically by known methods.
Briefly, mice were anesthetized with halothane, a small left abdominal flank incision was created and the spleen was exteriorized. HT29-GFP cells were harvested using only trypsin and were resuspended as a single-cell suspension in Hanks Balanced Salt Solution, free of Mg^2+ and Ca^2+. HT29-GFP cells (5×10^6 cells/400 μl) were injected into the spleen with a 27-gauge needle. The spleen was returned to the abdomen and the wound was closed in one layer with wound clips. After 24 hrs spleen was removed and animals were randomized into metastatic control and AR inhibitor, sorbinil group. Control group was fed with normal diet and AR inhibitor group fed with sorbinil (40 mg/kg body weight) in the diet. Mice were killed after 35 days, and metastasis in the liver was evaluated by using the Illumatool TLS (Lightools Research, Encinitas, Calif.). […]

Caco-2 cells [1] = test: Cox-2 mRNA RT-PCR in Caco-2 cells; format: cell-based, human; conditions: sorbinil 24 h, growth factor 3 h
Experimental: Total RNA was isolated from Caco-2 cells by using Rnaeasy micro isolation kit (Qiagen). Total RNA (1.5 μg) sample was reverse transcribed with Omniscript and Sensiscript reverse transcriptase one-Step RT PCR system with HotStarTaq DNA polymerase (Qiagen) at 55° C. for 30 min followed by PCR amplification. The oligonucleotide primer sequences were as follows: 5′-[…]-3′ (sense; SEQ ID NO: 4) and 5′-[…]-3′ (antisense; SEQ ID NO: 5) for Cox-2, and 5′-[…]-3′ (SEQ ID NO: 6) and 5′-[…]-3′ (SEQ ID NO: 7) for β-actin. PCR reaction was carried out in a GeneAmp 2700 thermocycler (Applied Biosystems, Foster City, Calif.) under the following conditions: initial denaturation at 95° C. for 15 min; 35 cycles of 94° C. 30 s, 62° C. 30 s, 72° C. 1 min, and then 72° C. 5 min for final extension (57). PCR products were electrophoresed in 2% Agarose-1™ TAE gels containing 0.5 μg/ml ethidium bromide.

Caco-2 cells [2] = test: Western blot of phospho-PKC-b2 in Caco-2 cells; format: cell-based, human; conditions: BFGF or PDGF
Experimental: To examine expression of any of Cox-1, Cox-2, phospho-PKC-2, GAPDH, E2F1, Cyclin D1, Cyclin E, and iNOS proteins, Western blot analyses were carried by known methods (15). Equal amounts of protein from cell extracts were subjected to 12% SDS-PAGE followed by transfer of proteins to nitrocellulose filters, probing with the indicated antibodies, and the antigen-antibody complex was detected by enhanced chemiluminescence (Pierce, Piscataway, N.J., USA).

HT29 cells = test: PGE2 assay in HT29 cells; format: cell-based; conditions: inhibitor alone
Experimental: Caco-2 cells were plated in 6 well plates at a density of 2×10^5 cells/well. After 24 hours, the medium was replaced with fresh medium containing 0.1% serum with or without, sorbinil (20 μM) followed by treatment with either 10 ng/ml BFGF or PDGF, for another 24 h. HT29 cells were plated in 6 well plate at a density of 2×10^5 cells/well. After 24 hours, medium was replaced with serum-free medium with or without, sorbinil or zopolrestat (20 μM) followed by treatment with either EGF (5 ng/ml) or BFGF (10 ng/ml) for another 24 h. The medium from each cell lines was collected from each well and analyzed for PGE2 by using an Enzyme Immuno Assay kit according to the manufacturer's instructions (Cayman Chemical Co., Inc.).
Briefly, 50 μl of diluted standard/sample were pipetted into a pre-coated goat polyclonal anti-mouse IgG 96-well plate. Aliquots (50 μl) of a PGE2 monoclonal antibody and PGE2 acetylcholine esterase (AchE) conjugate, (PGE2 tracer) were added to each well and allowed to incubate at 4° C. for 24 h. After incubation, the wells were washed five times with wash buffer containing 0.05% Tween-20, followed by the addition of 200 μl of Ellman's reagent containing acetylthiocholine and 5,5′-dithio-bis-(2-nitrobenzoic acid). Samples were read after 60 min at 412 nm with an ELISA reader. […]

(S)-6-fluorospiro[chroman-4,4′-imidazolidine]-2,5′-dione [sorbinil]
percentage of cells in G1 (A549 cells; 25 μM): 58.79%
percentage of cells in G2 (A549 cells; 25 μM): 6.06%
percentage of cells in S (A549 cells; 25 μM): 35.14%
percentage of cells in G1 (A549 cells; 50 μM): 59.24%
percentage of cells in G2 (A549 cells; 50 μM): 5.47%
percentage of cells in S (A549 cells; 50 μM): 35.29%
percentage of cells in G1 (A549 cells; 75 μM): 64.21%
percentage of cells in G2 (A549 cells; 75 μM): 5.55%
percentage of cells in S (A549 cells; 75 μM): 30.24%
percentage of cells in G1 (A549 cells; 100 μM): 65.55%
percentage of cells in G2 (A549 cells; 100 μM): 4.8%
percentage of cells in S (A549 cells; 100 μM): 29.75%
time to maximal ±dP/dt, coronary perfusion pressure, coronary vascular resistance, heart rate (isolated mouse hearts): unaffected
left ventricular pressure (LVP), +dP/dtmax and −dP/dtmax (isolated mouse hearts; compared to vehicle): significantly increased
tumor metastasis to the liver (GFP fluorescence, pixel numbers) (HT29-GFP cells): significant decrease
prevention of BFGF or PDGF-induced Cox-2 mRNA levels (Caco-2 cells [1]): 55-65%
attenuation of increase in PKC-β2 phosphorylation (Caco-2 cells [2]): > 70%
constitutive levels of PGE2 (HT29 cells): did not inhibit
